Assay results reported in PubChem BioAssay AID1259407 (Chemical Carcinogenesis Research Information System (CCRIS), 2018).
Calls of active or inactive are those of the source. The rule behind the calls is not given here.

Tested on: CCRIS mutagenicity, Ames/micronucleus/aberration tests
Assay: CCRIS mutagenicity studies
Details: Method: STANDARD PLATE

Measured: mutagenic call

O=c1c2ccccc2[se]n1-c1ccccc1
inactive: Test System: AMES SALMONELLA TYPHIMURIUM, Strain/Indicator: TA98, Metabolic Activation: NONE inactive; negative | Test System: AMES SALMONELLA TYPHIMURIUM, Strain/Indicator: TA98, Metabolic Activation: RAT LIVER S-9, PHENOBARBITAL AND 5,6-BENZOFLAVONE inactive; negative | Test System: AMES SALMONELLA TYPHIMURIUM, Strain/Indicator: TA100, Metabolic Activation: NONE inactive; negative | Test System: AMES SALMONELLA TYPHIMURIUM, Strain/Indicator: TA100, Metabolic Activation: RAT LIVER S-9, PHENOBARBITAL AND 5,6-BENZOFLAVONE inactive; negative | Test System: AMES SALMONELLA TYPHIMURIUM, Strain/Indicator: TA1535, Metabolic Activation: NONE inactive; negative | Test System: AMES SALMONELLA TYPHIMURIUM, Strain/Indicator: TA1535, Metabolic Activation: RAT LIVER S-9, PHENOBARBITAL AND 5,6-BENZOFLAVONE inactive; negative | Test System: AMES SALMONELLA TYPHIMURIUM, Strain/Indicator: TA1537, Metabolic Activation: NONE inactive; negative | Test System: AMES SALMONELLA TYPHIMURIUM, Strain/Indicator: TA1537, Metabolic Activation: RAT LIVER S-9, PHENOBARBITAL AND 5,6-BENZOFLAVONE inactive; negative | Test System: E.COLI, Strain/Indicator: WP2 UVRA, Metabolic Activation: NONE inactive; negative | Test System: E.COLI, Strain/Indicator: WP2 UVRA, Metabolic Activation: RAT LIVER S-9, PHENOBARBITAL AND 5,6-BENZOFLAVONE inactive; negative
